In US12084472B2 (Ardelyx, Inc., priority 2015, dated 2024):

The molecules below were run against T1, human TGR5 (Homo sapiens, UniProt Q8TDU6) (assay: Cell-based TGR5 assay (cAMP generation, HTRF)). Conditions: HEK293 cells stably transfected with human TGR5; cAMP by HTRF; 30 minutes at 37° C.; read-out: pEC50 Human TGR5 (converted).
T1 construct: expressed in transfected cells; host or cells: HEK293
T1 sequence (Q8TDU6 1-330): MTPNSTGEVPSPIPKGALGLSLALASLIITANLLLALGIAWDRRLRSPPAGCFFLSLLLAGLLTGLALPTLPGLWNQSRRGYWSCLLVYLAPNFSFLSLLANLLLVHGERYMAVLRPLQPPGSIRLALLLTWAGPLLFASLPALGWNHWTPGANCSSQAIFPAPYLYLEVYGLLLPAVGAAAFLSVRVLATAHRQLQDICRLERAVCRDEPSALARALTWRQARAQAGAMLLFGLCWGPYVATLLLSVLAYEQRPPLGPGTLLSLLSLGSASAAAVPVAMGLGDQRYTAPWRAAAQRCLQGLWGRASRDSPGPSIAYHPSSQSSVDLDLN
Outline: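 First, compounds in 3-fold serial dilution were placed in HBSS with 10 mM HEPES pH 7.4 and 0.5 mM IBMX. Next, human TGR5-expressing HEK293 cells were added and incubated 30 min at 37° C. Finally, cAMP was detected by HTRF and pEC50 derived by logistic fitting.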

| Compound | EC50 [nM] |
| --- | --- |
| CC(=O)NCCN(CCCSc1ccc(Cl)c(CNC2(c3cnccc3-c3ccccc3OC3CC3)CC2)c1)C(=O)[C@@H](O)[C@@H](O)[C@H](O)[C@@H](O)CO [Compound I-586, (2S,3S,4R,5S)-N-[3-({4-chloro-3-[({1-[4-(2-cyclopropoxyphenyl)pyridin-3-yl]cyclopropyl}amino)methyl]phenyl}sulfanyl)propyl]-N-(2-acetamidoethyl)-2,3,4,5,6-pentahydroxyhexanamide] | 126 to 1000 |
| Cc1cc(COC2(c3cnccc3-c3ccccc3OC3CC3)CC2)c(Cl)cc1CCCCNC(=O)N[C@@H](CCCNC(=N)N)C(=O)O [Compound I-113, (2S)-5-carbamimidamido-2-[({4-[5-chloro-4-({1-[4-(2-cyclopropoxyphenyl)pyridin-3-yl]cyclopropoxy}methyl)-2-methylphenyl]butyl}carbamoyl)amino]pentanoic acid] | < 100 |
| O=C(CCCCc1cc(Cl)c(COC2(c3cnccc3-c3ccccc3OC3CC3)CC2)cc1Cl)N1CCN(C[C@H](O)[C@@H](O)[C@@H](O)[C@H](O)CO)CC1 [Compound I-92, 5-(2,5-dichloro-4-((1-(4-(2-cyclopropoxyphenyl)pyridin-3-yl)cyclopropoxy)methyl)phenyl)-1-(4-((2S,3R,4S,5R)-2,3,4,5,6-pentahydroxyhexyl)piperazin-1-yl)pentan-1-one] | < 100 |
| Cc1ccc(CCCCC(=O)NC[C@H](O)[C@@H](O)[C@H](O)[C@H](O)CO)cc1CNC1(c2cnccc2-c2ccccc2OC2CC2)CC1 (stereo in doubt) [Compound I-237, 5-{3-[({1-[4-(2-cyclopropoxyphenyl)pyridin-3-yl]cyclopropyl}amino)methyl]-4-methylphenyl}-N-[(2S,3R,4R,5R)-2,3,4,5,6-pentahydroxyhexyl]pentanamide] | 126 to 1000 |
| CSc1ncc(C)c(CNC2(c3cnccc3-c3ccccc3OC3CC3)CC2)n1 [Compound I-496, 1-[4-(2-Cyclopropoxyphenyl)pyridin-3-yl]-N-[[5-methyl-2-(methylsulfanyl)pyrimidin-4-yl]methyl]cyclopropan-1-amine] | < 100 |
| Cc1ccc(C(C)CCCCNC(=O)[C@@H](O)[C@@H](O)[C@H](O)[C@@H](O)CO)cc1CNC1(c2cnccc2-c2ccccc2OC2CC2)CC1 (stereo partly drawn) [Compound I-300, (2S,3S,4R,5S)-N-(5-{3-[({1-[4-(2-cyclopropoxyphenyl)pyridin-3-yl]cyclopropyl}amino)methyl]-4-methylphenyl}hexyl)-2,3,4,5,6-pentahydroxyhexanamide] | < 100 |
| O=C(CCCCc1cc(Cl)c(COC2(c3cnccc3-c3ccccc3OC3CC3)CC2)cc1Cl)NCCCN1CCN(CCCNC(=O)CCCCc2cc(Cl)c(COC3(c4cnccc4-c4ccccc4OC4CC4)CC3)cc2Cl)CC1 [Compound I-101, 5-[2,5-dichloro-4-({1-[4-(2-cyclopropoxyphenyl)pyridin-3-yl]cyclopropoxy}methyl)phenyl]-N-{3-[4-(3-{5-[2,5-dichloro-4-({1-[4-(2-cyclopropoxyphenyl)pyridin-3-yl]cyclopropoxy}methyl)phenyl]pentanamido}propyl)piperazin-1-yl]propyl}pentanamide] | 1260 to 10000 |
| CCS(=O)(=O)CCN(CCCCC(C)c1ccc(Cl)c(CNC2(c3cnccc3-c3ccccc3OC3CC3)CC2)c1)C(=O)[C@@H](O)[C@@H](O)[C@H](O)[C@@H](O)CO (stereo partly drawn) [Compound I-296, (2S,3S,4R,5S)-N-(5-{4-chloro-3-[({1-[4-(2-cyclopropoxyphenyl)pyridin-3-yl]cyclopropyl}amino)methyl]phenyl}hexyl)-N-[2-(ethanesulfonyl)ethyl]-2,3,4,5,6-pentahydroxyhexanamide] | < 100 |
| Cc1cnc(SCCCC(=O)NC[C@H](O)[C@@H](O)[C@H](O)[C@H](O)CO)nc1CNC1(c2cnccc2-c2ccccc2OC2CC2)CC1 [Compound I-655, 4-({4-[({1-[4-(2-cyclopropoxyphenyl)pyridin-3-yl]cyclopropyl}amino)methyl]-5-methylpyrimidin-2-yl}sulfanyl)-N-[(2S,3R,4R,5R)-2,3,4,5,6-pentahydroxyhexyl]butanamide] | 12600 to 50100 |
| CCOC(=O)NCCCN(CCCSc1ccc(Cl)c(CNC2(c3cnccc3-c3ccccc3OC3CC3)CC2)c1)C(=O)[C@@H](O)[C@@H](O)[C@H](O)[C@@H](O)CO [Compound I-590, ethyl N-{3-[(2S,3S,4R,5S)-N-[3-({4-chloro-3-[({1-[4-(2-cyclopropoxyphenyl)pyridin-3-yl]cyclopropyl}amino)methyl]phenyl}sulfanyl)propyl]-2,3,4,5,6-pentahydroxyhexanamido]propyl} carbamate] | < 100 |

Further lines, results first:

| EC50 [nM] | Compound |
| --- | --- |
| < 100 | NC(=O)CN(CCCCCSc1ccc(Cl)c(CNC2(c3cnccc3-c3ccccc3OC3CC3)CC2)c1)C(=O)[C@@H](O)[C@@H](O)[C@H](O)[C@@H](O)CO [Compound I-610, (2S,3S,4R,5S)-N-(carbamoylmethyl)-N-[5-({4-chloro-3-[({1-[4-(2-cyclopropoxyphenyl)pyridin-3-yl]cyclopropyl}amino)methyl]phenyl}sulfanyl)pentyl]-2,3,4,5,6-pentahydroxyhexanamide] |
| 126 to 1000 | CCNC(=O)[C@H](CCCCNS(=O)(=O)c1ccc(Cl)c(COC2(c3cnccc3-c3ccccc3OC3CC3)CC2)c1)NC(=O)NC[C@H](O)[C@@H](O)[C@H](O)[C@H](O)CO [Compound I-487] |
| < 100 | Cc1ccc(S(=O)(=O)N(C)CCCCNC(=O)NC[C@H](O)[C@@H](O)[C@H](O)[C@H](O)CO)cc1COC1(c2cnccc2-c2ccccc2OC2CC2)CC1 [Compound I-479, 1-{4-[N-methyl3-({1-[4-(2-cyclopropoxyphenyl)pyridin-3-yl]cyclopropoxy}methyl)-4-methylbenzenesulfonamido]butyl}-3-[(2S,3R,4R,5R)-2,3,4,5,6-pentahydroxyhexyl]urea] |
| < 100 | O=C(NCCCCCS(=O)(=O)c1ccc(Cl)c(COC2(c3cnccc3-c3ccccc3OC3CC3)CC2)c1)N[C@@H](CO)[C@@H](O)[C@H](O)[C@H](O)CO [Compound I-643, 1-{5-[4-chloro-3-({1-[4-(2-cyclopropoxyphenyl)pyridin-3-yl]cyclopropoxy}methyl)benzenesulfonyl]pentyl}-3-[(2S,3R,4S,5R)-1,3,4,5,6-pentahydroxyhexan-2-yl]urea] |
| < 100 | O=C([C@@H](O)[C@@H](O)[C@H](O)[C@@H](O)CO)N(CCO)CCCCc1cc(Cl)c(COC2(c3cnccc3-c3ccccc3OC3CC3)CC2)cc1Cl [Compound I-213, (2S,3S,4R,5S)-N-{4-[2,5-dichloro-4-({1-[4-(2-cyclopropoxyphenyl)pyridin-3-yl]cyclopropoxy}methyl)phenyl]butyl}-2,3,4,5,6-pentahydroxy-N-(2-hydroxyethyl)hexanamide] |
| 126 to 1000 | CS(=O)(=O)CCCN(CCCSc1ccc(Cl)c(COC2(c3cnccc3-c3ccccc3OC3CC3)CC2)c1)C(=O)[C@@H](O)[C@@H](O)[C@H](O)[C@@H](O)CO [Compound I-558, (2S,3S,4R,5S)-N-(3-{[4-chloro-3-({1-[4-(2-cyclopropoxyphenyl)pyridin-3-yl]cyclopropoxy}methyl)phenyl]sulfanyl}propyl)-2,3,4,5,6-pentahydroxy-N-(3-methanesulfonylpropyl) hexanamide] |
| < 100 | CC(CCCCNC(=O)[C@@H](O)[C@@H](O)[C@H](O)[C@@H](O)CO)c1ccc(Cl)c(COC2(c3cnccc3-c3ccccc3OC3CC3)CC2)c1 (stereo partly drawn) [Compound I-308, (2S,3S,4R,5S)-N-{5-[4-chloro-3-({1-[4-(2-cyclopropoxyphenyl)pyridin-3-yl]cyclopropoxy}methyl)phenyl]hexyl}-2,3,4,5,6-pentahydroxyhexanamide] |
